Assay results from article PMC3171403, “Two Functionally Distinctive Phosphopantetheinyl Transferases from Amoeba Dictyostelium discoideum” (PLoS ONE, 2011).

Legend:
Format in all cases: biochemical
DiAcpS [1] = target: T1, DiAcpS (Dictyostelium discoideum, UniProt Q552R4); assay: gel-based radiolabel transfer to apo-ACP, phosphorimager; settings: labelled compound; 5-45 uM; 20 uM enzyme; 54 uM mycobacterial ACP Rv1344; 12.5 mM MgCl2, Tris-Cl pH 8.0, 30 C (gel-binding assay); only kcat/Km in text
T1 construct: gene DDB_G0275923; full gene (2 exons) in pET28a, N-terminal His6 tag, E. coli BL21(DE3); expected 20 kDa, runs at about 27 kDa

DiSfp [2] = target: T2, DiSfp (Dictyostelium discoideum, UniProt Q54MI2); assay: as above; settings: labelled compound; 5-45 uM; 20 uM enzyme; 54 uM mycobacterial PKS2; 12.5 mM MgCl2, Tris-Cl pH 8.0, 30 C (gel-binding assay); only kcat/Km in text
T2 construct: gene DDB_G0285927; full gene (2 exons) in pET28a, N-terminal His6 tag, E. coli BL21(DE3); 34 kDa

DiSfp [3] = target: T2, DiSfp; assay: HPLC and MALDI-TOF of holo-ACP formation; settings: 250 uM CoA; 54 uM apo DiPKS16 ACP; 12.5 mM MgCl2, Tris-Cl pH 8.0, 37 C
DiAcpS [4] = target: T1, DiAcpS; assay: HPLC and MALDI-TOF of holo-ACP formation; settings: 250 uM CoA; 54 uM apo-ACP (Rv1344 or Dictyostelium stand-alone ACP); 12.5 mM MgCl2, Tris-Cl pH 8.0, 37 C

T2 sequence (Q54MI2 entry or part of it): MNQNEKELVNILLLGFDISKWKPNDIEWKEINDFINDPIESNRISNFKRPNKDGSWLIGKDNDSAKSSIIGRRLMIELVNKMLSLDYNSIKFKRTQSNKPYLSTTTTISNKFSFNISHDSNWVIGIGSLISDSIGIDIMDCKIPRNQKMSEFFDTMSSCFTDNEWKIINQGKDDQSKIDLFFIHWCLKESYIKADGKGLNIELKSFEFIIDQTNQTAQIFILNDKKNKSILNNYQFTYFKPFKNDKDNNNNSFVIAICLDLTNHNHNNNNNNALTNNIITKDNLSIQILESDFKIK
T1 sequence (Q552R4 entry or part of it): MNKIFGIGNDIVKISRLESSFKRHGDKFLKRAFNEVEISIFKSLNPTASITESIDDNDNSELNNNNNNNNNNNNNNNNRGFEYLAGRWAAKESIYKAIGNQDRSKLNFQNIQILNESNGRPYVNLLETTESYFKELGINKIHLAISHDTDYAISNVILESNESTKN

SMILES | gel-based radiolabel transfer to apo-ACP, phosphorimager (DiAcpS [1]) | gel-based radiolabel transfer to apo-ACP, phosphorimager (DiSfp [2]) | HPLC and MALDI-TOF of holo-ACP formation (DiSfp [3]) | HPLC and MALDI-TOF of holo-ACP formation (DiAcpS [4])
CC(=O)SCCNC(=O)CCNC(=O)[C@H](O)C(C)(C)COP(=O)(O)OP(=O)(O)OC[C@H]1O[C@@H](n2cnc3c(N)ncnc32)[C@H](O)[C@@H]1OP(=O)(O)O [acetyl CoA] | Kinetics of DiAcpS with the ACP was determined by varying the concentrations of acetyl CoA | phosphopantetheinylation only by DiSfp and no activity could be observed for DiAcpS |  | 
CC(C)(COP(=O)(O)OP(=O)(O)OC[C@H]1O[C@@H](n2cnc3c(N)ncnc32)[C@H](O)[C@@H]1OP(=O)(O)O)[C@@H](O)C(=O)NCCC(=O)NCCS [coenzyme A] |  |  | DiSfp resulted in a shift of ACP retention time on reverse-phase column | DiAcpS mediated conversion of apo- to holo-ACP resulted in shift in the retention time
